Results taken from patent US8497376B2, “Inhibitors of c-fms kinase” (Janssen Pharmaceutica N.V., priority 2007, dated 2013).
Where a name gives a salt, the structure may show the parent alone. Read-outs that look alike come from different tables or passages of the source.

Columns and labels:
c-fms = c-fms (Homo sapiens (Human), UniProt P07333); experiment: Autophosphorylation fluorescence polarization competition immunoassay for c-fms inhibition; assay type: biochemical; details: 10 nM c-fms, 1 mM ATP; average of three independent measurements
Experimental: The assay buffer used was 100 mM 4-(2-hydroxyethyl)piperazine1-ethanesulfonic acid (HEPES), pH 7.5, 1 mM 1,4-dithio-DL-threitol (DTT), 0.01% (v/v) Tween-20. Compounds were diluted in assay buffer containing 4% dimethylsulfoxide (DMSO) just prior to the assay. […] The kinase reaction was initiated by adding 2 μL of 5 mM ATP (Sigma) in assay buffer. The final concentrations in the assay were 10 nM c-fms, 1 mM ATP, 5 mM MgCl2, 2% DMSO. Control reactions were ran in each plate: in positive and negative control wells, assay buffer (made 4% in DMSO) was substituted for the compound; in addition, positive control wells received 1.2 μL of 50 mM ethylenediaminetetraaceticacid (EDTA). The plates were incubated at room temperature for 45 min. At the end of the incubation, the reaction was quenched with 1.2 μL of 50 mM EDTA (EDTA was not added to the positive control wells at this point; see above). Following a 5-min incubation, each well received 10 μL of a 1:1:3 mixture of anti-phosphotyrosine antibody, 10×, PTK green tracer, 10× (vortexed), FP dilution buffer, respectively (all from PanVera, cat. # P2837). The plate was covered, incubated for 30 min at room temperature and the fluorescence polarization was read on the Analyst. The instrument settings were: 485 nm excitation filter; 530 nm emission filter; Z height: middle of well; G factor: 0.93. […] The reported IC50 values are averages of three independent measurements.

[1] = test system: mouse bone-marrow derived macrophages; experiment: CSF-1-driven mouse bone-marrow derived macrophages assay (BrDU incorporation); assay type: cell-based; details: CSF-1-driven proliferation, 30 hrs culture
Experimental: Macrophages were derived by culturing mouse bone marrow in alpha-MEM supplemented with 10% FCS and 50 ng/ml recombinant mouse CSF-1 in bacteriologic dishes. On the sixth day, macrophages were detached from dishes, washed, and resuspended to 0.05 million cells/ml in alpha-MEM containing 10% FCS. One hundred ul of cell suspension were distributed per well into 96 well culture plates. Wells were further supplemented with the addition of 50 ul media containing 15 ng/ml CSF-1, 3 uM Indomethacin, and 3× of a dilution series of test compounds. The cells were cultured for 30 hrs at 37 degrees and 5% CO2. During the final six hours, cultures were supplemented with an additional 30 ul of media containing a 1:500 dilution of bromodeoxyuridine (BrDU). At the end of the culture period, the plates were spun at 1000 RPM for 1 minute and 130 ul of media was removed with a pipet and replaced with 150 ul of fixative solution for 1 hour@room temperature. The fixative was then dispelled from the plates and the plates allowed to air dry. Incorporation of BrDU into the fixed, dried cells was quantified using a specific ELISA.

Sequence of c-fms (P07333 20-972): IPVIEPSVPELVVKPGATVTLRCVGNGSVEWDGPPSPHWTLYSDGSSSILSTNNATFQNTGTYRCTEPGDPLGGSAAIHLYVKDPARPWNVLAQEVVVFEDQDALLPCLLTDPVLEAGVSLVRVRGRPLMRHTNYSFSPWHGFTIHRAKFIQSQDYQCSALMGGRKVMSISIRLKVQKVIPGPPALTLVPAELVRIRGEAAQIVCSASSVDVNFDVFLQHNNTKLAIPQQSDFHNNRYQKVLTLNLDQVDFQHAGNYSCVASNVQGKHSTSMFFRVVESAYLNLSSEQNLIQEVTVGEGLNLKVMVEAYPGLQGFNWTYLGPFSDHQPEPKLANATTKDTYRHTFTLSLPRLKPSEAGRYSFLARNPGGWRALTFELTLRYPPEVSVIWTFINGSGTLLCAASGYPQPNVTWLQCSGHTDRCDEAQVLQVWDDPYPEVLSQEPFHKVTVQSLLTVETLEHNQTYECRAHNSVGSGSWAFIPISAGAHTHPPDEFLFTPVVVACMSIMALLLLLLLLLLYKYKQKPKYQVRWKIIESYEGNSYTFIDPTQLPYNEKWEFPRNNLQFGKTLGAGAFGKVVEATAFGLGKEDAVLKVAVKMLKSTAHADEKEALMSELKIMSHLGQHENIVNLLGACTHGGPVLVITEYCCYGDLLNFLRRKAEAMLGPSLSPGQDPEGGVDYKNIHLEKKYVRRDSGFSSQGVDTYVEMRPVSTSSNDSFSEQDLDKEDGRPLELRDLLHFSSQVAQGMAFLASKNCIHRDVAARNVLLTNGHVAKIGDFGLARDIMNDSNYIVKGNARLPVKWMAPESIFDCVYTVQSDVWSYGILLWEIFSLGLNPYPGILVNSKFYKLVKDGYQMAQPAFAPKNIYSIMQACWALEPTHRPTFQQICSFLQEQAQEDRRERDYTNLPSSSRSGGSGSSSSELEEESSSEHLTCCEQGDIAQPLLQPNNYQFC

Structure (SMILES)	IC50 (c-fms)	IC50 ([1]; Mus musculus, BMDM)	IC50 ([1]; read-out: BMDM IC50)
COC[C@@]12C=C[C@@](COC)(C[C@](O)(c3ccc(NC(=O)c4nc(C#N)c[nH]4)c(C4=CCC(C)(C)CC4)c3)C1)O2 [Example 1, 4-Cyano-1H-imidazole-2-carboxylic acid[2-(4,4-dimethyl-cyclohex-1-enyl)-4-[(3-exo)-3-hydroxy-1,5-bis-methoxymethyl-8-oxa-bicyclo[3.2.1]oct-6-en-3-yl]-phenyl]-amide]	0.86 nM	3.2 nM	
CC1(C)CC=C(c2cc([C@]3(O)C[C@@]4(CO)C=C[C@@](CO)(C3)O4)ccc2NC(=O)c2nc(C#N)c[nH]2)CC1 [Example 2, 4-Cyano-1H-imidazole-2-carboxylic acid[2-(4,4-dimethyl-cyclohex-1-enyl)-4-((3-exo)-3-hydroxy-1,5-bis-hydroxymethyl-8-oxa-bicyclo[3.2.1]oct-6-en-3-yl)-phenyl]-amide]		37 nM	
CC1(C)CC=C(c2cc([C@@H]3C[C@]4(CO)CC[C@](CO)(C3)O4)ccc2NC(=O)c2nc(C#N)c[nH]2)CC1 [Example 5, 4-Cyano-1H-imidazole-2-carboxylic acid[4-[(3-endo)-1,5-bis-hydroxymethyl-8-oxa-bicyclo[3.2.1]oct-3-yl]-2-(4,4-dimethyl-cyclohex-1-enyl)-phenyl]-amide]	0.47 nM	4.7 nM	
COC[C@@]12CC[C@@](COC)(C[C@@H](c3ccc(NC(=O)c4nc(C#N)c[nH]4)c(C4=CCC(C)(C)CC4)c3)C1)O2 [Example 6, 4-Cyano-1H-imidazole-2-carboxylic acid[4-[(3-endo)-1,5-bis-methoxymethyl-8-oxa-bicyclo[3.2.1]oct-3-yl]-2-(4,4-dimethyl-cyclohex-1-enyl)-phenyl]-amide]	2.7 nM	5 nM	
COC[C@@]12CC[C@@](COC)(C[C@H](c3ccc(NC(=O)c4nc(C#N)c[nH]4)c(C4=CCC(C)(C)CC4)c3)C1)O2 [Example 7, 4-Cyano-1H-imidazole-2-carboxylic acid[4-((3-exo)-1,5-bis-methoxymethyl-8-oxa-bicyclo[3.2.1]oct-3-yl)-2-(4,4-dimethyl-cyclohex-1-enyl)-phenyl]-amide]	2 nM	3.3 nM	
COC(=O)N1[C@@]2(C)C=C[C@]1(C)C[C@@](O)(c1ccc(NC(=O)c3nc(C#N)c[nH]3)c(C3=CCC(C)(C)CC3)c1)C2 [Example 10, 3-(3-exo)-[4-[(4-Cyano-1H-imidazole-2-carbonyl)-amino]-3-(4,4dimethyl-cyclohex-1-enyl)-phenyl]-(3-exo)-3-hydroxy-1,5-dimethyl-8-aza-bicyclo[3.2.1]oct-6-ene-8-carboxylic acid methyl ester]	3.5 nM	40 nM	
CC1(C)CC=C(c2cc([C@@]3(O)C[C@@]4(C)O[C@@](C)(C3)[C@@H]3OC(C)(C)O[C@@H]34)ccc2NC(=O)c2nc(C#N)c[nH]2)CC1 [Example 11, 4-Cyano-1H-imidazole-2-carboxylic acid[2-(4,4-dimethyl-cyclohex-1-enyl)-4-[(3-exo)-3-hydroxy-1,5-dimethyl-6-exo,7-exo-(dimethylmethylenedioxy)-bicyclo[3.2.1]oct-3-yl]-phenyl]-amide]	1.8 nM	2.5 nM	
CC1(C)CC=C(c2cc([C@@H]3C[C@@]4(C)O[C@@](C)(C3)[C@H](O)[C@@H]4O)ccc2NC(=O)c2nc(C#N)c[nH]2)CC1 [Example 13, 4-Cyano-1H-imidazole-2-carboxylic acid[4-(3-endo)-(6-exo,7-exo-dihydroxy-1,5-dimethyl-8-oxa-bicyclo[3.2.1]oct-3-yl)-2-(4,4-dimethyl-cyclohex-1-enyl)-phenyl]-amide]	0.81 nM	2.9 nM	
CC1(C)CC=C(c2cc(C3C[C@](C)(CO)O[C@](C)(CO)C3)ccc2NC(=O)c2ncc(C#N)[nH]2)CC1 (stereo partly drawn) [Example 14, 4-Cyano-1H-imidazole-2-carboxylic acid[4-cis-(2-cis,6-cis-bis-hydroxymethyl-2,6-dimethyl-tetrahydro-pyran-4-yl)-2-(4,4-dimethyl-cyclohex-1-enyl)-phenyl]-amide (A) and 4-Cyano-1H-imidazole-2-carboxylic acid[4-trans-(2-cis,6-cis-bis-hydroxymethyl-2,6-dimethyl-tetrahydro-pyran-4-yl)-2-(4,4dimethyl-cyclohex-1-enyl)-phenyl]-amide (B)]	1.1 nM		4.7 nM
CC1(C)CC=C(c2nc([C@H]3C[C@@]4(C)O[C@@](C)(C3)[C@@H]3OC(C)(C)O[C@@H]34)ccc2NC(=O)c2nc(C#N)c[nH]2)CC1 [Example 17, 4-Cyano-1H-imidazole-2-carboxylic acid[6-[(3-exo)-6-exo,7-exo-(isopropylidinedioxy)-1,5-dimethyl-8-oxa-bicyclo[3.2.1]oct-3-yl]-2-(4,4-dimethyl-cyclohex-1-enyl)-pyridin-3-yl]-amide]	4.6 nM	37 nM	
CC1(C)CC=C(c2nc(C3C[C@@]4(C)O[C@@](C)(C3)[C@H](O)[C@@H]4O)ccc2NC(=O)c2nc(C#N)c[nH]2)CC1 (stereo partly drawn) [Example 18, 4-Cyano-1H-imidazole-2-carboxylic acid[6-[(3-exo)-(6-exo,7-exo-dihydroxy-1,5-dimethyl-8-oxa-bicyclo[3.2.1]oct-3-yl)-2-(4,4-dimethyl-cyclohex-1-enyl)-pyridin-3-yl]-amidetrifluoroacetic acid saft and 4-Cyano-1H-imidazole-2-carboxylic acid[6-[(3-endo)-(6-exo,7-exo-dihydroxy-1,5-dimethyl-8-oxa-bicyclo[3.2.1]oct-3-yl)-2-(4,4-dimethyl-cyclohex-1-enyl)-pyridin-3-yl]-amidetrifluoroacetic acid salt]	0.72 nM	10 nM	

Further lines, with some results ahead:

IC50 (c-fms)	Structure (SMILES)	IC50 ([1]; Mus musculus, BMDM)	IC50 ([1]; read-out: BMDM IC50)
0.65 nM	CC1(C)CC=C(c2cc(C3=C[C@@]4(CO)C=C[C@@](CO)(C3)O4)ccc2NC(=O)c2nc(C#N)c[nH]2)CC1 [Example 3, 4-Cyano-1H-imidazole-2-carboxylic acid[4-(1,5-bis-hydroxymethyl-8-oxa-bicyclo[3.2.1]octa-2,6-dien-3-yl)-2-(4,4-dimethyl-cyclohex-1-enyl)-phenyl]-amide]	9.3 nM	
0.72 nM	CC1(C)CC=C(c2cc([C@H]3C[C@]4(CO)CC[C@](CO)(C3)O4)ccc2NC(=O)c2nc(C#N)c[nH]2)CC1 [Example 4, 4-Cyano-1H-imidazole-2-carboxylic acid[4-[(3-exo)-1,5-bis-hydroxymethyl-8-oxa-bicyclo[3.2.1]oct-3-yl]-2-(4,4-dimethyl-cyclohex-1-enyl)-phenyl]-amide]	6.6 nM	
0.42 nM	CC1(C)CC=C(c2cc([C@@]3(O)C[C@]4(CO)CC[C@](CO)(C3)O4)ccc2NC(=O)c2nc(C#N)c[nH]2)CC1 [Example 8, 4-Cyano-1H-imidazole-2-carboxylic acid[2-(4,4-dimethyl-cyclohex-1-enyl)-4-[(3-exo)-3-hydroxy-1,5-bis-hydroxymethyl-8-oxa-bicyclo[3.2.1]oct-3-yl]-phenyl]-amide]	41 nM	
1.1 nM	CC1(C)CC=C(c2cc([C@@]3(O)C[C@]4(C)C=C[C@](C)(C3)O4)ccc2NC(=O)c2nc(C#N)c[nH]2)CC1 [Example 9, 4-Cyano-1H-imidazole-2-carboxylic acid[2-(4,4-dimethyl-cyclohex-1-enyl)-4-((3-exo)-3-hydroxy-1,5-dimethyl-8-oxa-bicyclo[3.2.1]oct-6-en-3-yl)-phenyl]-amide]	4.8 nM	
0.66 nM	CC1(C)CC=C(c2cc([C@@]3(O)C[C@@]4(C)O[C@@](C)(C3)[C@H](O)[C@@H]4O)ccc2NC(=O)c2nc(C#N)c[nH]2)CC1 [Example 12]	36 nM	
1.4 nM	CC1(C)CC(c2ccc(NC(=O)c3nc(C#N)c[nH]3)c(C3=CCCCC3)n2)CC(C)(C)O1 [Example 16, 4-Cyano-1H-imidazole-2-carboxylic acid[2-cyclohex-1-enyl-6-(2,2,6,6-tetramethyl-tetrahydro-pyran-4-yl)-pyridin-3-yl]-amide]	8.2 nM	
99 nM	C[C@@H]1C2(C)C=C[C@@](C)(O2)[C@H](C)[C@@]1(O)c1ccc(NC(=O)c2nc(C#N)c[nH]2)c(C2=CCC(C)(C)CC2)c1 [Example 30, 4-Cyano-N-(2-(4,4dimethylcyclohex-1-enyl)-4-[(3-exo)-3-hydroxy-(2-endo,4-endo-dimethyl)-1,5-dimethyl-8-oxabicyclo[3.2.1]oct-6-en-3-yl)phenyl)-1H-imidazole-2-carboxamide]		
